Molecules are shown by their SMILES. Where two headings read alike, the source gives them in different places.

The values that follow come from PMC8615111, “Phenolic Thiazoles with Antioxidant and Antiradical Activity. Synthesis, In Vitro Evaluation, Toxicity, Electrochemical Behavior, Quantum Studies and Antimicrobial Screening” (Antioxidants, 2021).

For one data set, the system named is HaCaT cells. Kind of data set: Cytotoxicity determination, MTT method. The settings on record: Homo sapiens, HaCaT cells, MTT, 24 h. The format is cell-based. Here is the method: To determine the cytotoxic action of the obtained compounds 5[…], and 8a-b, a normal human keratinocytes cell line was used (HaCaT keratinocytes, CLS-300493, Eppelheim, Germany). HaCaT cells were cultured in Dulbecco's Modified Eagle Media (DMEM) supplemented with 1% L-glutamine, 1% penicillin-streptomycin, and 5% fetal bovine serum. At 80% confluence, the cells were transferred to 96 well plates at a confluence of 12×10^3 cells/well and left to attach for 24 h at 37°C and 5% CO2 in a humidified atmosphere. […] After 24 h, the culture media was replaced with 100 μL of MTT solution at a final concentration of 5 μg/mL/well and left to interact with the cells for 2 h in the incubator. After this, the MTT solution was replaced with 100 μL of isopropanol, left to dissolve the formazan crystals for 5 min, and read at 550 and 630 nm using a BioTek Epoch plate reader (BioTek Instruments, Winooski, VT, USA) and Gen5 software (version 1.09).

Data set [1] in a line: TEMPO scavenging by differential pulse voltammetry. As to conditions: 2 mM TEMPO, one hour incubation, 0.1 M HClO4, DPV. The procedure:
(§1) The antioxidant properties were evaluated in terms of their activity against some free radicals, and other compounds reported in the literature, relevant for this purpose, such as: • ferric ions (Fe^3+)—used to test the reduction of the antioxidant character of the compounds; • DPPH˙ free radical– used to test the scavenging effect of the compounds on this radical; • hydrogen peroxide (H2O2)—used to test the scavenging effect of the synthesized molecules on this compound; • 2,2,6,6-tetramethylpiperidinyl-1-oxy (TEMPO)—used to test the scavenging effect of the synthesized molecules on this compound.
TEMPO (2,2,6,6-tetramethylpiperidine-N-oxyl) is a stable organic nitroxide radical that has been reported to scavenge carbon-centered radicals.
Differential pulse voltammetry (DPV) was then applied in order to evaluate the antioxidant effectiveness of the novel compounds through their ability to scavenge the free radical species.

The subject of another data set is C. albicans ATCC 102310. Kind of data set: Antifungal activity, modified microdilution. Format: cell-based. The settings on record: Candida albicans, ATCC102310. The procedure:
For evaluating the antimicrobial activity of the compounds, […] aerobic microbial strains were used: S. aureus ATCC 25923, S. pyogenes ATCC 19615, P. aeruginosa ATCC 27853, S. enterica ISM 83/37, S. typhimurium ATCC 14028, E. coli ATCC 8739, E. coli ATCC 25922, and C. albicans ATCC 102310 obtained from Food Biotechnology Laboratory, Life Sciences Institute, University of Agricultural Sciences, and Veterinary Medicine Cluj Napoca, where the experiment was performed. The antimicrobial activity of the compounds was determined using a modified microdilution technique, and the followed protocol was previously reported.
The antimicrobial activity of the final compounds, against seven aerobic microbial strains (S. aureus ATCC 25923, S. pyogenes ATCC 19615, P. aeruginosa ATCC 27853, S. enterica ISM 83/37, S. typhimurium ATCC 14028, E. coli ATCC 8739, E. coli ATCC 25922), and a fungal strain (C. albicans ATCC 102310), was determined using a modified microdilution technique.
The results of the antimicrobial activity evaluation of the compounds, in comparison to norfloxacin and chloramphenicol used as standard antibiotics and fluconazole used as reference antifungal, are depicted in Table 10.

Data set [2] can be described thus: DPPH˙ radical scavenging assay. Format: biochemical. The settings on record: for IC50: DPPH˙ scavenging. Here is the method: The 2,2-diphenyl-1-picrylhydrazyl (DPPH˙) radical scavenging assay is based on the transfer of one hydrogen from the analyzed compound to the violet radical DPPH˙. This will convert it to a yellow compound, the change in absorbance being proportional to the amount of DPPH˙ neutralized, according to Brand-Williams et al..
The preparation of the DPPH˙ reagent was previously reported by our group. […] Over the previous quantities, DMSO was added until a total volume of 50 µL was obtained in all cuvettes, and 1950 µL of DPPH˙ solution was added to all cuvettes; then, they were shaken for well over 10 min in the dark at room temperature. The absorbances of the solutions were measured at λ = 517 nm. The DPPH˙ radical scavenging activity of evaluated compounds was calculated using Equation (2):(2) DPPH scavenging (%)=control absorbance−sample absorbance/control absorbance×100
(In general: The DPPH test is a chemical assay of radical scavenging.)

Data set [3] is described as follows: Ferric ions (Fe^3+) reducing antioxidant power by cyclic voltammetry. The procedure:
The evaluated compounds’ stock solutions used were prepared at a concentration of 5 mM. To test their redox properties, dilutions of 0.5 mM and 2 mM were prepared in 0.1 M HClO4 electrolyte (pH = 1.2). Screen-printed electrodes (SPEs; Metrohm DropSens, Oviedo, Spain) (planar electrodes) with graphite and gold working electrodes were used. Cyclic voltammetry (CV) and differential pulse voltammetry (DPV) were the electrochemical methods applied. The experimental conditions for each test are mentioned near the corresponding data (Appendix A).
as §1
This method is based on the evaluation of the influence of the compound measured by the direct reduction of Fe[(CN)6]^3− to […]. This assay is based on the reduction of Fe^3+ to Fe^2+ due to the action of antioxidants. Based on the electrochemical behavior of the studied compounds, the interaction of Fe^3+ was followed by cyclic voltammetry (CV) via the possible changes of redox peaks characteristic for Fe^3+/Fe^2+ transition after the interaction with antioxidants (if any).
From the voltammogram of potassium ferricyanide it can be observed that the one-electron transfer process Fe^3+/Fe^2+ occurs at 0.247 V/ 0.150 V in acidic media (red) (Figure A1; Table A1).
Each compound presents its characteristic peaks (blue line in each figure).

Where [4] appears, read: compound + Fe^3+/Fe^2+, 1st Ered.
The mark [5] stands for this setting: compound + Fe^3+/Fe^2+, 1st Ired.
Setting [6] is: compound + Fe^3+/Fe^2+, 2nd Eox.
Where [7] appears, read: compound + Fe^3+/Fe^2+, 2nd Iox column.
Setting [8] is: compound alone 0.5 mM in 0.1 M HClO4, 2nd Iox column.
Setting [9] is: compound alone 0.5 mM in 0.1 M HClO4, 3rd Iox column.
Setting [10] is: compound 0.5 mM + Fe^3+/Fe^2+ (0.5 mM potassium ferricyanide), 1st Eox column.
Where [11] appears, read: compound 0.5 mM + Fe^3+/Fe^2+ (0.5 mM potassium ferricyanide), 1st Iox column.
Where [12] appears, read: compound + Fe^3+/Fe^2+, 5th Eox.
Setting [13] is: compound + Fe^3+/Fe^2+, 5th Iox column.
The mark [14] stands for this setting: compound alone 0.5 mM in 0.1 M HClO4, 2nd Eox.
The mark [15] stands for this setting: compound alone 0.5 mM in 0.1 M HClO4, 5th Eox.
[16] abbreviates: compound alone 0.5 mM in 0.1 M HClO4, 5th Iox column.

One may read the MIC as the least concentration at which growth counts as inhibited. As to `Br.C/C(=N\Nc1nc(-c2ccc(O)c(C(N)=O)c2)cs1)c1ccc(O)cc1O` [Compound 7a, (E)-1-(4-(3-carbamoyl-4-hydroxyphenyl)thiazol-2-yl)-2-(1-(2,4-dihydroxyphenyl)ethylidene)hydrazin-1-ium bromide], the figures for the IC50 (in the data set with HaCaT cells (read-out: IC50); in the data set with HaCaT cells (read-out: IC50 (µg/mL)); in data set [2]) were 75.5 µM, 35.1 µg/mL and 5.19 mg/L, respectively. Also, in data set [1], the “oxidation signal for TEMPO after incubation with the compound” value (from here on “oxidation signal for TEMPO”) was “does not decrease”. The minimum inhibitory concentration (MIC) against C. albicans ATCC 102310 was over 100 mg/L. Moreover, the “% of DPPH˙ Scavenged” value in data set [2] (1 µg/mL) came out at 20.01%; in data set [2] (1.5 µg/mL), 22.10%; in data set [2] (2 µg/mL), 26.75%; in data set [2] (3 µg/mL) it was 32.43%; in data set [2] (5 µg/mL), 49.27%. The “Ered (V)” value in data set [3] (setting [4]) was 0.164 V. For the same compound, the “Ired (μA)” value in data set [3] (setting [5]) is given as −7.23 μA. In addition, in data set [3] (setting [6]), the “Eox (V)” value was determined as 0.23 V. Besides, the “Iox (μA)” value was 4.35 μA in data set [3] (setting [7]); 1.75 μA in data set [3] (compound + Fe^3+/Fe^2+, 3rd Iox column); 4.37 μA in data set [3] (setting [8]); 1.95 μA in data set [3] (setting [9]).

As for `Br.NC(=O)c1cc(-c2csc(N/N=C/c3ccc(O)cc3O)n2)ccc1O` [Compound 7b, (E)-1-(4-(3-carbamoyl-4-hydroxyphenyl)thiazol-2-yl)-2-(2,4-dihydroxybenzylidene) hydrazin-1-ium bromide], the IC50 in the data set with HaCaT cells (read-out: IC50) amounted to 93.9 µM; with HaCaT cells (read-out: IC50 (µg/mL)) it was 42.4 µg/mL; in data set [2] it was 4.84 mg/L. For the same compound, in data set [1], the “oxidation signal for TEMPO” value is given as “does not decrease”. This compound also returned an MIC against C. albicans ATCC 102310 of over 100 mg/L. The “% of DPPH˙ Scavenged” value in data set [2] (1 µg/mL) stood at 24.01%; in data set [2] (1.5 µg/mL) it was 26.00%; in data set [2] (2 µg/mL), 30.41%; in data set [2] (3 µg/mL) it was 35.81%; in data set [2] (5 µg/mL), 51.80%. For the same compound, the “Eox (V)” value in data set [3] (setting [10]) stood at 0.205 V; in data set [3] (setting [6]) it was 0.305 V; in data set [3] (setting [12]), 0.926 V; in data set [3] (setting [14]), 0.347 V; in data set [3] (setting [15]), 1.065 V. Moreover, the “Iox (μA)” value is 1.39 μA in data set [3] (setting [11]); 6.08 μA in data set [3] (setting [7]); 6.34 μA in data set [3] (setting [13]); 2.07 μA in data set [3] (setting [8]); 2.64 μA in data set [3] (setting [16]). In data set [3] (setting [4]), the “Ered (V)” value was determined as 0.161 V. Moreover, in data set [3] (setting [5]), the “Ired (μA)” value was −6.8 μA.

Turning to `C/C(=N\Nc1nc(-c2ccc(O)c(O)c2)cs1)c1ccc(O)cc1O.Cl` [Compound 8a, (E)-2-(1-(2,4-dihydroxyphenyl)ethylidene)-1-(4-(3,4-dihydroxyphenyl)thiazol-2-yl)hydrazin-1-ium chloride], the IC50 in the data set on HaCaT cells (read-out: IC50) turned out to be 113 µM; with HaCaT cells (read-out: IC50 (µg/mL)), 44.6 µg/mL; in data set [2], 3.26 mg/L. In data set [1], the “oxidation signal for TEMPO” value was “both the signal shift to higher oxidation potentials and its decrease”. For the same compound, in the data set with C. albicans ATCC 102310 (C. albicans ATCC 102310, read-out: MIC), the MIC is over 100 mg/L. Besides, the “% of DPPH˙ Scavenged” value was found to be 25.05% in data set [2] (1 µg/mL); 31.43% in data set [2] (1.5 µg/mL); 36.02% in data set [2] (2 µg/mL); 47.13% in data set [2] (3 µg/mL); 68.90% in data set [2] (5 µg/mL). Besides, the “scavenging effect on ferric ion” value in data set [3] (0.5 mM ferricyanide + 0.5 mM compound) was “highest scavenging effect”. Besides, the “Eox (V)” value came to 0.072 V in data set [3] (setting [10]); 0.186 V in data set [3] (setting [6]); 0.452 V in data set [3] (compound + Fe^3+/Fe^2+, 4th Eox column); 0.87 V in data set [3] (setting [12]); 0.195 V in data set [3] (setting [14]); 0.330 V in data set [3] (compound alone 0.5 mM in 0.1 M HClO4, 3rd Eox column). Moreover, the “Eox (V)” value in data set [3] (compound alone 0.5 mM in 0.1 M HClO4, 4th Eox column) is 0.460 V; in data set [3] (setting [15]) it was 0.985 V. Further, the “Iox (μA)” value in data set [3] (setting [11]) is on record as 0.17 μA; in data set [3] (setting [7]), 17.73 μA; in data set [3] (compound + Fe^3+/Fe^2+, 4th Iox column), 12.93 μA; in data set [3] (setting [13]) it was 18.64 μA; in data set [3] (setting [8]) it was 2.32 μA; in data set [3] (setting [9]), 7.42 μA. For the same compound, the “Iox (μA)” value worked out at 7.70 μA in data set [3] (compound alone 0.5 mM in 0.1 M HClO4, 4th Iox column) and 3.45 μA in data set [3] (setting [16]). Also, the “Ered (V)” value is recorded as 0.054 V in data set [3] (setting [4]) and 0.296 V in data set [3] (compound alone 0.5 mM in 0.1 M HClO4, 2nd Ered column). Moreover, the “Ired (μA)” value was −8.37 μA in data set [3] (setting [5]) and −5.09 μA in data set [3] (compound alone 0.5 mM in 0.1 M HClO4, 2nd Ired).
